Test results published in ChEMBL document CHEMBL1123763, “Resolution of (+/-)-2-tetradecyloxiranecarboxylic acid. Absolute configuration and chiral synthesis of the hypoglycemic R enantiomer and biological activity of enantiomers” (J Med Chem, 1987).
Blank lines part the entries; values can stand above or below the compound they belong to. Calls of active or inactive are those of the source. The rule behind the calls is not given here.

What was measured:
[1] = molecular target: T1, Carnitine O-palmitoyltransferase 1, liver isoform (Rattus norvegicus, UniProt P32198); assay: Inhibition of carnitine palmitoyl transferase (CPT), assessed with isolated rat liver mitochondria
T1 sequence (P32198 whole entry): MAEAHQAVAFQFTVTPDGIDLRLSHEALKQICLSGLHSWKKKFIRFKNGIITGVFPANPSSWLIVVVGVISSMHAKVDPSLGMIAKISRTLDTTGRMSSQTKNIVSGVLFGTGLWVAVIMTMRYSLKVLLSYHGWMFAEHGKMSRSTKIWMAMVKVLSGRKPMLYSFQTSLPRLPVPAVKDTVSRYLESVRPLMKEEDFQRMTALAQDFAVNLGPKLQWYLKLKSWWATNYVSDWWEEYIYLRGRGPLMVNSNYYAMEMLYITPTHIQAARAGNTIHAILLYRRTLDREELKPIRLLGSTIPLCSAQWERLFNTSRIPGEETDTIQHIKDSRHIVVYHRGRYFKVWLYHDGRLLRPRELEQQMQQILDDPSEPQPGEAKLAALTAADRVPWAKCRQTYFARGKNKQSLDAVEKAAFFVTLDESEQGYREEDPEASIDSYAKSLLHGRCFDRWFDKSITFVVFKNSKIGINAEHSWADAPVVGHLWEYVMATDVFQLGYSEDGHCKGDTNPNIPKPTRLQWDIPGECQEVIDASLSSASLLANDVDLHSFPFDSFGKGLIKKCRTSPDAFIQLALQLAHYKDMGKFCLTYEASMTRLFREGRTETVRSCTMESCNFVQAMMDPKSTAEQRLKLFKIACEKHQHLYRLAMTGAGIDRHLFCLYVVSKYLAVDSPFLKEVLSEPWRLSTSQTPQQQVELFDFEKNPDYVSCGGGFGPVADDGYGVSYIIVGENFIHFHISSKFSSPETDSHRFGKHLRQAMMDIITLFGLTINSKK

[2] = molecular target: T1, Carnitine O-palmitoyltransferase 1, liver isoform; assay: Inhibition of carnitine palmitoyl transferase (CPT), assessed with isolated rat liver mitochondria; Inactive
[3] = tested on: Rattus norvegicus; assay: Rat glucose tolerance in vivo expressed as minimum effective dose (MED), it is the lowest dose giving a statistically significant (p<0.05) lowering at any time point; format: functional; details: read-out: MED
[4] = species on record: Rattus norvegicus; assay: In vitro inhibition of [1-14C]palmitate oxidation in rat hemidiaphragms; format: functional
[5] = tested on: Rattus norvegicus; assay: Rat glucose tolerance test was determined in vivo at 10 mg/kg perorally; format: functional; details: route oral
[6] = tested on: Rattus norvegicus; assay: Rat glucose tolerance test was determined in vivo at 100 mg/kg perorally; format: functional; details: route oral
[7] = tested on: Rattus norvegicus; assay: Rat glucose tolerance test was determined in vivo at 75 mg/kg perorally; format: functional; details: route oral
[8] = species on record: Rattus norvegicus; assay: In vitro inhibition of [1-14C]palmitate oxidation in rat hemidiaphragms; Inactive; format: functional
[9] = tested on: Rattus norvegicus; assay: Rat glucose tolerance test was determined in vivo at 100 mg/kg perorally; Inactive; format: functional, organism-based; set-up: dose 100 mg/kg
[10] = tested on: Rattus norvegicus; assay: Rat glucose tolerance in vivo expressed as minimum effective dose (MED), it is the lowest dose giving a statistically significant (p<0.05) lowering at any time point; Inactive; format: functional, organism-based

IC50 [1]: 20 nM
Structure (SMILES): CCCCCCCCCCCCCC[C@]1(C(=O)SCCNC(=O)CCNC(=O)C(O)C(C)(C)COP(=O)(O)OP(=O)(O)OC[C@H]2O[C@@H](n3cnc4c(N)ncnc43)[C@H](O)[C@@H]2OP(=O)(O)O)CO1 (some centres undefined)

IC50 [1]: 40 nM
Structure (SMILES): CCCCCCCCCCCCCC[C@]1(C(=O)OC)CO1

IC50 [2]: Not Active
Structure (SMILES): CCCCCCCCCCCCCC[C@@]1(C(=O)SCCNC(=O)CCNC(=O)C(O)C(C)(C)COP(=O)(O)OP(=O)(O)OC[C@H]2O[C@@H](n3cnc4c(N)ncnc43)[C@H](O)[C@@H]2OP(=O)(O)O)CO1 (some centres undefined)

IC50 [4]: 1200 nM | IC50 [1]: 30 nM
Structure (SMILES): CCCCCCCCCCCCCC[C@]1(C(=O)O)CO1
minimal effective dose [3]: 5 mg/kg | Lowering [5]: 25%

IC50 [1]: 30 nM
Structure (SMILES): CCCCCCCCCCCCCCC1(C(=O)SCCNC(=O)CCNC(=O)C(O)C(C)(C)COP(=O)(O)OP(=O)(O)OC[C@H]2O[C@@H](n3cnc4c(N)ncnc43)[C@H](O)[C@@H]2OP(=O)(O)O)CO1 (mixture of isomers)

IC50 [4]: 2200 nM | IC50 [1]: 40 nM
Structure (SMILES): CCCCCCCCCCCCCCC1(C(=O)O)CO1 (racemic) [PALMOXIRATE]
Lowering [6]: 53% | minimal effective dose [3]: 5 mg/kg

IC50 [1]: 90 nM
Structure (SMILES): CCCCCCCCCCCCCCC1(C(=O)OC)CO1 (racemic) [METHYL PALMOXIRATE]
minimal effective dose [3]: 2 mg/kg | Lowering [7]: 45%

IC50 [8]: Not Active | IC50 [2]: Not Active
Structure (SMILES): CCCCCCCCCCCCCC[C@@]1(C(=O)O)CO1
Lowering [9]: inactive | MED [10]: inactive
